In experiment [1] the test system is R. solani AG2-2 CuHav-Rs18. Nature of the experiment: Fungal plug-CLP droplet assay (growth inhibition and microscopy). It counts as cell-based. The text has this:
(§1) The cocoyam rhizosphere isolate, P. myriotylum CMR1 [42], was maintained on Potato Dextrose Agar (PDA) for three days prior to use. The bean root rot pathogen, R. solani AG2-2 CuHav-Rs18 [43], was maintained on the same media for four days before use. The fungal plug-CLP method was used. Sterile microscopic glass slides were covered with a thin, flat layer of water agar (Bacto agar; Difco) and placed in a plastic Petri dish containing a moist sterile filter paper. An agar plug (diameter = 5 mm) taken from an actively growing colony of R. solani or P. myriotylum and placed on top at the center of each glass slide. Stock solutions of purified CLPs were made by dissolution in Dimethyl sulfoxide (DMSO). Serial dilutions of […], 1 µM, 10 µM, 25 µM and 50 µM were prepared using sterile milliQ water. For each dilution, two droplets (15 μL each) of purified CLP (WLIP, pseudodesmin or viscosinamide) were placed on two sides of the glass slide (about 2 cm from the fungal plug). For the control treatment, 0.5% DMSO was used. All plates were incubated for 48 h (P. myriotylum) or 72 h (R. solani) at 28 °C before evaluation under an Olympus BX51 microscope. The images were processed using TopView software. Using a vernier caliper, the inhibition zones were measured as the distance between the CLP droplet and the growing edge of the pathogen. The growth inhibition effect of pure compounds towards both plant pathogens was expressed relative to the mycelial growth in the control. Five replicates of each slide were used. Representative photos are shown.

Experiment [2] deals with six Gram-positive bacterial strains. As to conditions: cited from earlier work. From the text: Viscosinamide and pseudodesmin CLPs are neutral, have similar amino acid (AA) composition and only differ from each other by the stereochemistry on the 5th AA [30]. […] A recent study tested the antibacterial activity of 20 novel synthesized pseudodesmin A analogs and reported a mode of action determined by the macrocycle closed by an ester bond and the critical length of the β-OH fatty acid chain capping the N-terminus.

Experiment [3] has as its system P. myriotylum CMR1. Briefly: Fungal plug-CLP droplet assay (growth inhibition and microscopy). The experiment is classed as cell-based, Pythium myriotylum. As to conditions: for Effect on growth of P. myriotylum mycelium (inhibition zone): all concentrations tested (100 nM, 1, 10, 25, 50 µM), 48 h, 28 °C, n = 5.
From the text: as §1

For experiment [4], the system named is Pythium ultimum. As to conditions: cited from earlier work. The text has this:
(§2) Antimicrobial activities of Viscosin-group CLPs have been reported, including antibacterial activity. […] When challenged with viscosinamide, cellular changes were detected in the mycelia of both P. ultimum and R. solani.

The subject of experiment [5] is R. solani. As to conditions: cited from earlier work.
From the text: as §2

Experiment [6] has as its system R. solani. Nature of the experiment: Pathogen perception experiment (one CLP droplet). The experiment is classed as cell-based. As to conditions: one 15 µL CLP droplet 2 cm from the plug, other side blank. The method, then:
(§3) For pathogen perception experiments, the afore-described plug-CLP droplet method was employed with slight modifications. Only one 15 µL CLP droplet was introduced 2 cm away from the fungal plug, while the other side of the plug remained blank. Results were assessed by observing whether or not the pathogen only grew towards the CLP droplet or in both directions. Pathogen-CLP interaction was evaluated microscopically and pictures were taken.

Experiment [7] has as its system P. myriotylum. Nature of the experiment: Pathogen perception experiment (one CLP droplet). It counts as cell-based, Pythium myriotylum. As to conditions: one 15 µL CLP droplet 2 cm from the plug, other side blank. The method, then:
as §3

Setting [8] is: purified viscosinamide produced by P. fluorescens DR54.

In the case of pseudodesmin A, the “Visual inhibition zone, R. solani AG 2-2” value in experiment [1] (100 nM, 72 h, 28 °C) is on record as “visual inhibition zone”; in experiment [1] (higher concentrations of 1, 10, 25 and 50 µM, compared with 100 nM), “became enhanced”. Further, in experiment [1] (0.1, 1, 10, 25 and 50 µM), the “Hyphal morphology of R. solani (microscopy)” value (from here on “Hyphal morphology of R. solani”) is “CLP evasion by the pathogen, hyphae distortion and the disintegration of hyphae with debris observed on the slide”. Also, in experiment [2], the “Antibacterial activity, pseudodesmin compared with viscosinamide” value is “equal activity”. Besides, the “Hyphal morphology of P. myriotylum (microscopy)” value in experiment [3] (100 nM, 10 µM and 25 µM) is “increased/hyper branching, hyphal distortion and CLP evasion”. The “Effect on growth of P. myriotylum mycelium (inhibition zone)” value in experiment [3] is on record as “significantly inhibited pathogen growth”.

viscosinamide A: the “Cellular changes in mycelia of P. ultimum” value in experiment [4] (fluorescent stains) was “extensive branching, increased hyphal septation and swelling and decreased the hydrophobicity of cell walls and membranes”. Also, the “Effect on growth of Pythium ultimum” value in experiment [4] (setting [8]) was “reduced fungal growth and the aerial mycelium development”. In addition, the “Cellular changes in mycelia of R. solani” value in experiment [5] (fluorescent stains) is “extensive branching, increased hyphal septation and swelling and decreased the hydrophobicity of cell walls and membranes”. Besides, the “Effect on growth of R. solani” value in experiment [5] (setting [8]) is “reduced fungal growth and the aerial mycelium development”. The “Hyphal morphology of R. solani” value in experiment [1] (50 µM) is “mycelia distortion and disintegration was observed in combination with a coordinated formation of melanized structures by multiple primary hyphae”; in experiment [1] (all concentrations tested except 50 µM), “CLP evasion, hyphal distortion and the rupturing of contents”. Moreover, in experiment [1] (all concentrations tested (100 nM-50 µM)), the “Visual inhibition zone, R. solani AG 2-2” value is listed as “no visual inhibition zone was observed in treatments with viscosinamide except at 10 µM”. Further, the “Antibacterial activity, pseudodesmin compared with viscosinamide” value in experiment [2] is “equal activity”. Moreover, the “Hyphal morphology of P. myriotylum (microscopy)” value in experiment [3] (50 µM) is “enhanced elongation of primary mycelium and the formation of convergent structures by mycelia”. Moreover, the “Effect on growth of P. myriotylum mycelium (inhibition zone)” value in experiment [3] was “enhanced the growth of P. myriotylum mycelium without any visible inhibition zone”.

As for “White Line-Inducing Principle [WLIP, reference compound]”, the “Perception of the CLP by R. solani (direction of growth)” value in experiment [6] is recorded as “appeared not to recognize WLIP but grew towards it until hyphal disintegration occurred”. Further, the “Visual inhibition zone, R. solani AG 2-2” value is on record as “slight inhibition zone” in experiment [1] (100 nM, 72 h, 28 °C); “strong inhibition” in experiment [1] (highest concentration (50 µM)); “unclear” in experiment [1] (intermediate concentrations). The “Hyphal morphology of R. solani” value in experiment [1] (hyphae growing towards the compound, concentration not specified) is “increased branching as they grew in the direction of the compound”; in experiment [1] (upon contact with the compound, concentration not specified), “disintegration of hyphae was observed”. Besides, in experiment [3], the “Effect on growth of P. myriotylum mycelium (inhibition zone)” value is listed as “visual inhibition zones that could not be easily measured”. The “Hyphal morphology of P. myriotylum (microscopy)” value in experiment [3] (concentration not specified) was “hyphal disintegration, timely evasion and an absence of branching”. Besides, the “Perception of the CLP by P. myriotylum (direction of growth)” value in experiment [7] is recorded as “grew evenly on sides with or without the CLP”.

These data come from PMC7409209, “Biosynthesis and Antimicrobial Activity of Pseudodesmin and Viscosinamide Cyclic Lipopeptides Produced by Pseudomonads Associated with the Cocoyam Rhizosphere” (Microorganisms, 2020).
